The numbers were not newly measured in patent US11376295B2, “Method for preparing Rhus verniciflua stokes extract containing increased fisetin content, and metastasis-inhibiting anticancer agent composition containing same” (MEDIENCE CO.,LTD, priority 2018, dated 2022), which cites them from elsewhere.

The conditions of this data set: among flavonoids of the Rhus verniciflua Stokes extract; result of research, background.

For `O=c1c(O)c(-c2ccc(O)c(O)c2)oc2cc(O)ccc12` [fisetin], the anticancer activity result is listed as “highest anticancer activity”. Turning to `O=C1c2ccc(O)cc2O[C@H](c2ccc(O)c(O)c2)[C@H]1O` [fustin], the anticancer activity result is given as “low anticancer activity”.
